US10583098B2, “Topical co-enzyme Q10 formulations and treatment of pain, fatigue and wounds” (priority 2006, dated 2020)

How the values were obtained:
Assay type in all cases: cell-based
[1] = test system: Human Aortic Smooth Muscle Cells (HASMC); assay: ATP production in HASMC, Luciferin-Luciferase ATP assay; settings: 0-20 μg/ml, 24 h, in words
Experimental: We have investigated the effect of Q10 on ATP production in Human Aortic Smooth Muscle Cells (HASMC). This cell line was chosen for the study based on its ability to produce ATP at levels detectable by the Luciferin-Luciferase ATP assay. We also studied the effect of The composition comprising about 0.001% to about 60% (w/w) Coenzyme Q10 on Muscle Cell proliferation.
(§1) D-(+)-Glucose at 10 mM (Peiro et al., Brit. Jour. of Pharmacology 133: 967-974 (2001)) was used as an energy substrate for the production of ATP. The wells of the 6-well plate were incubated with 0-20 μg/ml of CoQ10, 1 μg and 20 μg/ml CoQ10, or 1 μg and 20 μg/ml of the Vehicle of Coenzyme Q10, all in Medium 231. The well plates were incubated at 37° C. and 5% CO2 for specified experimental periods. Medium 231 contains 4.6 mM Glu originally, thus only an additional 5.4 mM added to medium (Dr. Gary D. Shipley, Cascade Biologics, Portland, Oreg.).
After incubation, the medium was removed and replaced with cold (4° C.) 1% w/v Trichloroacetic Acid (TCA) as the lysis buffer. This buffer causes almost instantaneous inhibition of ATPases (Kangas et al., Med Biol 62: 338-343 (1984)). The wells were incubated with TCA at room temperature for 5 min with gentle swirling. […]
HASM Cells were incubated at 37° C. and 5% CO2 with 0-20 μg/ml Coenzyme Q10. […] Samples were then taken for quantification of ATP using the Luciferin-Luciferase ATP Assay. […]

[2] = test system: Human Aortic Smooth Muscle Cells (HASMC); assay: HASMC proliferation, Coulter cell count; settings: for Cell number: 24 h incubation, HASMC; for % Diff vs. Ctrl (24 hr): HASMC cell number
Experimental: At approximately 80% confluency, the cells were subcultured using Trypsin-EDTA to detach the cells and Defined Trypsin Inhibitor, DTI to neutralize the cell suspension before centrifugation at 2500 RPM for 8 minutes. The supernatant was aspirated and discarded. The resultant cell pellet was then resuspended in fresh Medium 231. A cell count was performed using a hemocytometer before seeding the experimental 6-well plates at 200,000 cells/well.
Q10 was dissolved in ethanol and the solution was diluted with Medium 231 to the required concentrations. The Vehicle used in preparing the composition comprising about 0.001% to about 60% (w/w) Coenzyme Q10 was composed of MCT, BHT, Glycerol, and Sodium Phosphate buffered to pH 7.2 and subjected to sonication, then diluted with Medium 231 to experimental concentrations.
as §1
The well-plates were decanted to empty the wells of the reagents and any residue was aspirated carefully with an electronic pipettor. 0.5 ml Trypsin-EDTA was added to each well for 5-7 minutes to aid detachment. Upon complete detachment as determined under a microscope, 0.5 ml Medium 231 was added to the resultant cell suspension to neutralize the Trypsin. 0.5 ml of this cell suspension was taken for reading in a Coulter cell counter.
In FIG. 2, HASM Cells were incubated at 37° C. and 5% CO2 with 0-20 μg/ml Coenzyme Q10, The composition comprising about 0.001% to about 60% (w/w) Coenzyme Q10, and the Vehicle(V) used in The composition comprising about 0.001% to about 60% (w/w) Coenzyme Q10. The 6-well plates were incubated for 24 h in Medium 231. After treatment with Trypsin-EDTA and gentle scraping, cells were neutralized with Medium 231 and mixed by pipetting. Samples were then taken for quantification using a Coulter cell counter. (*Significant compared to Ctrl, P<0.05; One-way ANOVA and Dunnett's).

[3] = test system: Human neonatal fibroblasts (nFIB); assay: In vitro incisional wound model, fibroblast migration; settings: versus control, in words
Experimental: (§2) The proliferation and migration of keratinocytes and fibroblasts are paramount to the restoration of the cutaneous architecture. […] To test the effect of Q10 on neonatal fibroblasts and keratinocytes, an in vitro incisional wound model was employed. Cells were seeded in 6-well tissue culture plates with supplemented media and incubated for 48 hours to facilitate a 90% confluency level prior to experimentation. A cross-shaped “wound” gap was made among the near confluent monolayer of cells in the center of each well. Detached cells were then washed off with medium. Each well was then replenished with medium with or without Q10. […] Cell migration was quantified by time and percentage of “wound” gap covered by cells that migrated into the gap field. The percentage of gap filled (PGf) was calculated as PGf=(1−At/A0)×100, where At is the gap area at time t, and A0 is the gap area at time 0. […]
(§3) Human neonatal fibroblasts (nFIB) and human neonatal keratinocytes (SC-KC) were grown to ˜90% confluency in T-75 flasks at which time they were trypsinized and seeded into 6-well tissue culture plates. […] Cell migration was quantified by time and percentage of “wound” gap covered by cells that migrated into the gap field. The percentage of gap filled (PGf) was calculated as PGf=(1−At/A0)×100, where A(t) is the gap area at time t, and A(0) is the gap area at time 0. […]

[4] = test system: human neonatal keratinocytes (SC-KC); assay: Keratinocyte proliferation; settings: in words
Text: (§4) FIGS. 7-10 show the results obtained.

[5] = test system: Human neonatal fibroblasts (nFIB); assay: Fibroblast proliferation; settings: in words
Text: as §4

[6] = test system: human neonatal keratinocytes (SC-KC); assay: In vitro incisional wound model, keratinocyte migration; settings: versus control, in words
Experimental: as §2, §3

COC1=C(OC)C(=O)C(C/C=C(\C)CC/C=C(\C)CC/C=C(\C)CC/C=C(\C)CC/C=C(\C)CC/C=C(\C)CC/C=C(\C)CC/C=C(\C)CC/C=C(\C)CCC=C(C)C)=C(C)C1=O [Q-10, 2,3-dimethoxy-5-methyl-6-decaprenyl-1,4-benzoquinone]
Effect on ATP production [1]: increases ATP production | Effect on ATP production ([1]; listed as Coenzyme Q10): stimulatory effect on ATP production | Cell number ([2]; 1.0 μg/ml): 42.4 10^4 | % Diff vs. Ctrl (24 hr) ([2]; 1.0 μg/ml): 65.1% | Cell number ([2]; 20.0 μg/ml): 63.1 10^4 | % Diff vs. Ctrl (24 hr) ([2]; 20.0 μg/ml): 145.6% | Fibroblast migration (rate of gap coverage) [3]: statistically significant increase in the rate of gap coverage | Fibroblast migration (rate of gap coverage) ([3]; listed as coenzyme Q10): enhances the migration and proliferation | Keratinocyte proliferation [4]: enhances the migration and proliferation | Fibroblast proliferation [5]: enhances the migration and proliferation | Keratinocyte migration (rate of gap coverage) [6]: statistically significant increase in the rate of gap coverage | Keratinocyte migration (rate of gap coverage) ([6]; listed as coenzyme Q10): enhances the migration and proliferation
